Converted amounts (≈) assume the structure as drawn.
Tests used:
[1] = molecular target: Large neutral amino acids transporter small subunit 1 (Homo sapiens, UniProt Q01650); assay: Inhibition of recombinant human LAT1
[2] = molecular target: Peroxisome proliferator-activated receptor gamma (Homo sapiens, UniProt P37231); assay: Inhibition of PPARgamma (unknown origin)
[3] = molecular target: 72 kDa type IV collagenase (Homo sapiens, UniProt P08253); assay: Inhibition of MMP2 catalytic domain (unknown origin) using Ac-PLG-[2-mercapto-4-methylpentanoyl]-LG-OC2H5 as substrate preincubated for 45 to 120 mins followed by substrate addition measured for 30 mins in 1 min time interval
[4] = molecular target: Quinolone resistance protein NorA (Staphylococcus aureus) (UniProt P0A0J7); assay: Inhibition of NorA in Staphylococcus aureus measured after 1 hr by ethidium bromide staining based agar-cartwheel assay method
Streptococcus pneumoniae = assay: Antibacterial activity against Streptococcus pneumoniae; assay type: functional
Psilocybe cubensis = assay: Antifungal activity Psilocybe cubensis; assay type: functional, organism-based
Phytophthora infestans = assay: Antifungal activity Phytophthora infestans; assay type: functional, organism-based
Leishmania amazonensis = assay: Antileishmanial activity against Leishmania amazonensis promastigotes; assay type: functional, organism-based
[5] = system: Feline immunodeficiency virus; assay: Antiviral activity against Feline immunodeficiency virus; assay type: functional, organism-based
[6] = molecular target: Prostaglandin G/H synthase 2 (Homo sapiens, UniProt P35354); assay: Inhibition of COX2 (unknown origin) by EIA
Rattus norvegicus [7] = assay: Anti-inflammatory activity against carrageenan-induced Albino Wistar rat paw edema model assessed as inhibition of rat paw edema at 50 mg/kg, po after 5 hrs relative to control; assay type: functional
Klebsiella pneumoniae = assay: Antibacterial activity against Klebsiella pneumoniae; assay type: functional, organism-based
Alpha glucosidase = Alpha glucosidase (Homo sapiens, UniProt O43451+P10253+P14410+Q2M2H8); assay: Inhibition of alpha-glucosidase (unknown origin) using p-nitrophenyl alpha-d-glucopyranoside as substrate preincubated for 15 mins followed by substrate addition measured after 30 mins by spectrophotometric analysis; assay type: protein assay
Escherichia coli = assay: Antibacterial activity against Escherichia coli; assay type: functional, organism-based
Staphylococcus aureus [8] = assay: Antibacterial activity against Staphylococcus aureus; assay type: functional, organism-based
Bacillus subtilis = assay: Antibacterial activity against Bacillus subtilis; assay type: functional, organism-based
Pseudomonas aeruginosa = assay: Antibacterial activity against Pseudomonas aeruginosa; assay type: functional, organism-based
Candida albicans = assay: […] activity against Candida albicans; assay type: functional, organism-based
Rattus norvegicus [9] = assay: Anti-inflammatory activity against carrageenan-induced Albino Wistar rat paw edema model assessed as inhibition of rat paw edema at 10 mg/kg, po pretreated for 1 hr followed by carrageenan addition measured after 1 to 4 hrs relative to control; assay type: functional
[10] = system: Staphylococcus epidermidis; assay: Antibacterial activity against Staphylococcus epidermidis ATCC 12228 by broth microdilution method; assay type: functional
Staphylococcus aureus [11] = assay: Antibacterial activity against Staphylococcus aureus ATCC 25923 by broth microdilution method; assay type: functional
Staphylococcus aureus [12] = assay: Antibacterial activity against Staphylococcus aureus ATCC 6538 by broth microdilution method; assay type: functional
MCF7 [13] = assay: Growth inhibition of human MCF7 cells after 48 hrs by SRB assay; assay type: functional; details: MCF7, 48 h
Rattus norvegicus [14] = assay: Anti-inflammatory activity against carrageenan-induced Albino Wistar rat paw edema model assessed as inhibition of rat paw edema at 50 mg/kg, po pretreated for 1 hr followed by carrageenan addition measured after 1 to 4 hrs relative to control; assay type: functional
[15] = Antioxidant activity assessed as DPPH radical scavenging activity after 30 mins under dark condition; assay type: functional
RAW264.7 = assay: Anti-inflammatory activity against mouse RAW264.7 cells assessed as inhibition of LPS-induced NO production at 50 ug/ml relative to control; assay type: functional; set-up: scale not given: the % may be the effect or the level left
[16] = system: Mycobacterium tuberculosis; assay: Antitubercular activity against Mycobacterium tuberculosis; assay type: functional
Jurkat = assay: Anticancer activity against human Jurkat cells; assay type: functional, cell-based
A-431 = assay: Anticancer activity against human A431 cells; assay type: functional, cell-based
Human gammaherpesvirus 4 = assay: Antiviral activity against Epstein-Barr virus; assay type: functional, organism-based
MCF7 [17] = assay: Cytotoxicity against human MCF7 cells after 72 hrs by MTT assay; assay type: functional, cell-based; details: MCF7, 72 h
MCF7 [18] = assay: Potency index, ratio of doxorubicin IC50 to compound IC50 for human MCF7 cells; assay type: functional
HepG2 = assay: Growth inhibition of human HepG2 cells by MTT assay; assay type: functional
HT-29 = assay: Growth inhibition of human HT-29 cells by MTT assay; assay type: functional
NCI-H460 = assay: Growth inhibition of human NCI-H460 cells by MTT assay; assay type: functional

Sequence of Prostaglandin G/H synthase 2 (P35354 whole entry): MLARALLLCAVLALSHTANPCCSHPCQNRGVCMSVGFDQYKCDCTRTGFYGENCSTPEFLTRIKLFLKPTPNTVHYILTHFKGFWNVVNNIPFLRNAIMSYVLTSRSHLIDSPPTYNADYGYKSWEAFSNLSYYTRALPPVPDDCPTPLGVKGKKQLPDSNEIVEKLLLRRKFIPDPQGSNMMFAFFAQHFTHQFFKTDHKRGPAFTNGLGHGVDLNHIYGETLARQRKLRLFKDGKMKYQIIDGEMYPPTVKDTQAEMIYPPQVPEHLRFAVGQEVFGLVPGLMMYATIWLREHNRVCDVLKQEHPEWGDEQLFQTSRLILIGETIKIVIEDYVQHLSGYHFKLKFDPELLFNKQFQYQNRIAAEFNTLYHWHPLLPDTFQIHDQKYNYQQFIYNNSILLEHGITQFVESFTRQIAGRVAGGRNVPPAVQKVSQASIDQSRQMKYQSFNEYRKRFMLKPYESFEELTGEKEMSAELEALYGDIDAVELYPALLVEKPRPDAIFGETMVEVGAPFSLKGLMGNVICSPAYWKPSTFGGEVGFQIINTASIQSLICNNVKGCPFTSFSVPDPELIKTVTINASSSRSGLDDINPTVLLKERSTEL
Sequence of 72 kDa type IV collagenase (P08253 whole entry, the tested form may be a part): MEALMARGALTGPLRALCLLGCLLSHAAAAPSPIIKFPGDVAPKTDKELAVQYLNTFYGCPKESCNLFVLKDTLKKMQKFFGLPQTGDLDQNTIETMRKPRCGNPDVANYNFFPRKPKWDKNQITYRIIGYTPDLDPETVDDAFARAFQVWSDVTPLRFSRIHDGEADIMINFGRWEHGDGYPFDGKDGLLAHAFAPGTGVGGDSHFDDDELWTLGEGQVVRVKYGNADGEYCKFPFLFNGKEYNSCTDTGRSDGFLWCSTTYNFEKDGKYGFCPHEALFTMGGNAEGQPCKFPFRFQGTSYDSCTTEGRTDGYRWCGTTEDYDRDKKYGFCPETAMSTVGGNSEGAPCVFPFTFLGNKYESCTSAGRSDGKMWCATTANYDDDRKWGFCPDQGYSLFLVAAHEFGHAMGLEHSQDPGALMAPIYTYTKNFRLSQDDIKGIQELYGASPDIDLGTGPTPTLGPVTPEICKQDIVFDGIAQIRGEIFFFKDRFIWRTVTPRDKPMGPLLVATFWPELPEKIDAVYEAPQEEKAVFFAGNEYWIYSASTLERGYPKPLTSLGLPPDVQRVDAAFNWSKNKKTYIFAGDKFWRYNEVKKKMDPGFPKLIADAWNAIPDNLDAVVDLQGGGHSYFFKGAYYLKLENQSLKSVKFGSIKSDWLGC
Sequence of Large neutral amino acids transporter small subunit 1 (Q01650 whole entry): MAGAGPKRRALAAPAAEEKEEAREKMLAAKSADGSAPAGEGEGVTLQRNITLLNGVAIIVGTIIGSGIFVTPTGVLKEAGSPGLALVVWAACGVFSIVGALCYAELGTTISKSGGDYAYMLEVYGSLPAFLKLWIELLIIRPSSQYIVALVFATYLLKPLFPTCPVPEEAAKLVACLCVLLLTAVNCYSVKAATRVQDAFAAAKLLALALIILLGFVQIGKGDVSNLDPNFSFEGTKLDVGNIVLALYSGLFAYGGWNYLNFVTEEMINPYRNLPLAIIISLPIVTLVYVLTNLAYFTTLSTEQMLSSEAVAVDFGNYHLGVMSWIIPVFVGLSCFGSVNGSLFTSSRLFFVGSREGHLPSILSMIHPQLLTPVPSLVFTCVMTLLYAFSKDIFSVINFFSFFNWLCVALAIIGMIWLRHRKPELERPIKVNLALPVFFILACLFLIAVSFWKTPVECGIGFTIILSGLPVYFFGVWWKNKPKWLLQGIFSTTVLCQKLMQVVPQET
Sequence of Peroxisome proliferator-activated receptor gamma (P37231 whole entry, the tested form may be a part): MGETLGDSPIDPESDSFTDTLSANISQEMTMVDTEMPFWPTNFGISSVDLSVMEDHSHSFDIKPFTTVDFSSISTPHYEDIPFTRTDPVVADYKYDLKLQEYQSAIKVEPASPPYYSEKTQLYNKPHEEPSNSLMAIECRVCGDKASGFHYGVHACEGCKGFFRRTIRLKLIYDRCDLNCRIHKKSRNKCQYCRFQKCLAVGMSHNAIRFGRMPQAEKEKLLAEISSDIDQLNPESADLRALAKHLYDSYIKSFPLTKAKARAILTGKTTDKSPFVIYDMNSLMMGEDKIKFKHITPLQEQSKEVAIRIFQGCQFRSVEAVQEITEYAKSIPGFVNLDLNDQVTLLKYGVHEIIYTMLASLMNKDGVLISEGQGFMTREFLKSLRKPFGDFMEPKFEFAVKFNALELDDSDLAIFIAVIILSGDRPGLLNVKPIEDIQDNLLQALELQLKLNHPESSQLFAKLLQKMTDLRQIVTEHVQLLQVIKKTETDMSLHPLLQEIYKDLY

## FC(F)(F)Oc1ccc(/N=c2\ssnc2Cl)nc1
[1]
  IC50: 0.98 µM

## CCCCNC(=O)CN1C(=O)S/C(=C/c2ccc(Cl)cc2)C1=O
[2]
  EC50: 5.9 µM

## O=S(=O)(CC1CS1)c1ccc(-n2cc(-c3ccc(-c4ccncc4)cc3)nn2)cc1 (configuration not stated)
[3]
  IC50: 0.62 µM

## O=C(Nc1nc(=S)ss1)c1ccc(Cl)cc1
[4]
  MIC: 0.5 µg/mL (≈ 1.73 µM)

## C=CCNc1nc(C)c(C2=NN(C(N)=S)[C@H](c3ccc(Cl)cc3)C2)s1
Streptococcus pneumoniae
  MIC: 0.12 µg/mL (≈ 0.306 µM)

## O=C(c1cccc(Br)c1)N1CCC(c2cc(-c3snc(Cl)c3Cl)ns2)CC1
Psilocybe cubensis
  EC50: 0.046 µg/mL (≈ 0.0914 µM)
Phytophthora infestans
  EC50: 0.27 µg/mL (≈ 0.536 µM)

## COc1ccc2nc3cc(Cl)ccc3c(Nc3sc4c(c3C#N)CCC4)c2c1
Leishmania amazonensis
  IC50: 9.6 µM

## S=c1ssnc1-c1ccccc1
[5]
  EC50: 0.023 µM

## COc1ccc(-c2nn(-c3ccc(S(C)(=O)=O)cc3)cc2/C=C2\SC(=O)NC2=O)cc1
[6]
  IC50: 0.88 µM
Rattus norvegicus [7]
  inhibition in vivo at 50 mg/kg: 80.2%

## GENTAMICIN
Klebsiella pneumoniae
  MIC: 0.03 µg/mL

## COc1ccc(-c2csc(NC(=O)CSc3nnc(-c4ccc(Br)cc4)c(-c4ccc(Br)cc4)n3)n2)cc1
Alpha glucosidase
  IC50: 2.85 µM

## O=C(N[C@H](CO)[C@H](O)c1ccc([N+](=O)[O-])cc1)C(Cl)Cl [CHLORAMPHENICOL]
Escherichia coli; Escherichia coli
  IC50: 22.5 µM
Staphylococcus aureus [8]; Staphylococcus aureus
  IC50: 22.5 µM
Bacillus subtilis; Bacillus subtilis
  IC50: 22.5 µM
Pseudomonas aeruginosa; Pseudomonas aeruginosa
  IC50: 22.5 µM
Candida albicans; Candida albicans
  IC50: 22.5 µM

## COc1ccc2c(c1)c(CC(=O)O)c(C)n2C(=O)c1ccc(Cl)cc1 [INDOMETHACIN]
Rattus norvegicus [9]
  inhibition in vivo at 10 mg/kg: 47.7%

## O=C(CC1SC(=O)NC1=O)Oc1ccc(/C=C2/SC(=O)NC2=O)cc1Br (configuration not stated)
[10]
  MIC: 7.81 µg/mL (≈ 17.1 µM)
Staphylococcus aureus [11]
  MIC: 3.91 µg/mL (≈ 8.55 µM)
Staphylococcus aureus [12]
  MIC: 3.91 µg/mL (≈ 8.55 µM)

## N#Cc1ccccc1-c1nnc(-c2ccc(/C=C3\SC(=O)NC3=O)cc2)o1
MCF7 [13]
  GI50: 0.004 µM

## N#Cc1c(-c2ccc(N3CCOCC3)cc2)csc1NC(=O)CN1CCOCC1
Rattus norvegicus [14]
  inhibition in vivo at 50 mg/kg: 58.5%

## COc1ccc(C2SCC(=O)N2c2ccc3nc(Cc4ccc(O)cc4)c(=O)[nH]c3c2)cc1 (configuration not stated)
[15]
  IC50: 19.6 µM

## N#Cc1ccc(/N=N/c2ccc(/C=C3\SC(=O)NC3=O)c(/N=N/c3ccc(C#N)cc3)c2O)cc1
RAW264.7
  Activity: 60%

## Fc1ccc(-c2cn(Cc3csc(-c4ccccc4)n3)nn2)cc1
[16]
  MIC: 8.99 µg/mL (≈ 26.7 µM)

## Cc1ccc(Nc2nc(N(C)C)c(C#N)s2)cc1C
Jurkat
  IC50: 34.8 µM
A-431
  IC50: 34.3 to 34.8 µM

## O=C1O[C@H]([C@@H](O)CO)C(O)=C1O [ASCORBIC ACID]
[15]
  IC50: 16.9 µM

## COc1ccc([C@H]2c3sc(=O)[nH]c3SC[C@H]2C=O)cc1
Human gammaherpesvirus 4
  EC50: 0.07 µM

## N#Cc1c(/N=C/c2cc3cc(Br)ccc3[nH]2)sc2c1CCCCC2
MCF7 [17]
  IC50: 14.9 µM
MCF7 [18]
  Ratio IC50: 3.51

## O=C(O)c1sc(-c2ccc(Cl)cc2)cc1C1C=C(c2ccccc2)c2c1ncn1c(-c3ccc(Cl)cc3)nnc21 (configuration not stated)
HepG2
  GI50: 0.02 µM
HT-29
  GI50: 0.03 µM
NCI-H460
  GI50: 0.05 µM

## COc1cccc2c1C(=O)c1c(O)c3c(c(O)c1C2=O)C[C@@](O)(C(=O)CO)C[C@@H]3O[C@H]1C[C@H](N)[C@H](O)[C@H](C)O1 [DOXORUBICIN]
HepG2
  GI50: 0.04 µM
HT-29
  GI50: 0.05 µM
NCI-H460
  GI50: 0.09 µM
Jurkat
  IC50: 45.9 µM
A-431
  IC50: 42.4 µM

## NYSTATIN
Escherichia coli
  IC50: 7.3 µM
Staphylococcus aureus [8]
  IC50: 7.3 µM
Bacillus subtilis
  IC50: 7.3 µM
Pseudomonas aeruginosa
  IC50: 7.3 µM
Candida albicans
  IC50: 7.3 µM

## CC1(C)S[C@@H]2[C@H](NC(=O)[C@H](N)c3ccccc3)C(=O)N2[C@H]1C(=O)O [AMPICILLIN]
Streptococcus pneumoniae
  MIC: 0.03 µg/mL (≈ 0.0859 µM)
